Data on three compounds can be found in PMC12526275, “hERG Channel Blockade and Antagonistic Interactions of Three Steroidal Alkaloids from Fritillaria Species” (Molecules, 2025).

Format in all cases: cell-based
Series [1] has as its target T1, hERG channel (human Ether-a-go-go-Related Gene, Kv11.1) (Homo sapiens, UniProt Q12809).
T1 construct: gene KCNH2
Put plainly: manual whole-cell patch clamp, hERG tail currents in stably expressing HEK293 cells.

For series [2], the target named is T2, hERG channel mutant S631A (Homo sapiens, UniProt Q12809, S631A).
T2 construct: gene KCNH2
T2 sequence (Q12809 whole entry S631A): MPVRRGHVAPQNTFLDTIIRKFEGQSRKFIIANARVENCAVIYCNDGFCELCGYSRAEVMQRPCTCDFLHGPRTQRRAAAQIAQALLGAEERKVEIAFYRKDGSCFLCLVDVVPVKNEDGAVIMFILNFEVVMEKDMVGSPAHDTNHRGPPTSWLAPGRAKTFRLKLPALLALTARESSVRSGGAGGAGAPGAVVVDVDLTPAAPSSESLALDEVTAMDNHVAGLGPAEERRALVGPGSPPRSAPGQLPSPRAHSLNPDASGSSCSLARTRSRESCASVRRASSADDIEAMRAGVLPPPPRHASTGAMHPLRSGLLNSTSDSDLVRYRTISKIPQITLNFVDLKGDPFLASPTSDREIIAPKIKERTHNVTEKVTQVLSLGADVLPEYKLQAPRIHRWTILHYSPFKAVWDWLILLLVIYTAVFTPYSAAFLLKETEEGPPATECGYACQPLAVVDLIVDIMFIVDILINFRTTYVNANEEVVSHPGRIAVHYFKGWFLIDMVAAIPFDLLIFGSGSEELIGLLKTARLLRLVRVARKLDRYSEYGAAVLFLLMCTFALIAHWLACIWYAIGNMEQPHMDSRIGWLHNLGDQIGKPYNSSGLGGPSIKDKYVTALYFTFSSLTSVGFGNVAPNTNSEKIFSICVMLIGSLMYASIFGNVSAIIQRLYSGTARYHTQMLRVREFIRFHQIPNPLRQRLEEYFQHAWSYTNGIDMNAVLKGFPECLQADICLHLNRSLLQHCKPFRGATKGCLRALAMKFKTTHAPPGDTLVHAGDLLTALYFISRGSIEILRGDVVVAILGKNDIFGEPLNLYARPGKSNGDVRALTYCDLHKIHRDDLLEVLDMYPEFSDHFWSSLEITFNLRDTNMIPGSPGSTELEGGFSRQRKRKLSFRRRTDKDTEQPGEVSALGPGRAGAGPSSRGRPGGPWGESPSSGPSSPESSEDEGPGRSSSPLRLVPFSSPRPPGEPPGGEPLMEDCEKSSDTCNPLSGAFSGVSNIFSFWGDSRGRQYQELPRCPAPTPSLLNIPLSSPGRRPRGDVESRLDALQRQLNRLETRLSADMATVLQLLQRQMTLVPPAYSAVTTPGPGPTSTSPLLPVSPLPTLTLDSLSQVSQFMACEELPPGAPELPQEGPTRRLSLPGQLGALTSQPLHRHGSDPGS
Briefly: whole-cell patch clamp, transiently transfected HEK293 cells; inhibition at […].

In series [3] the target is T1, hERG channel (human Ether-a-go-go-Related Gene, Kv11.1). Briefly: manual whole-cell patch clamp, hERG tail currents in stably expressing HEK293 cells; IC50 extrapolated (maximum tested […]).

T1 sequence (Q12809 whole entry): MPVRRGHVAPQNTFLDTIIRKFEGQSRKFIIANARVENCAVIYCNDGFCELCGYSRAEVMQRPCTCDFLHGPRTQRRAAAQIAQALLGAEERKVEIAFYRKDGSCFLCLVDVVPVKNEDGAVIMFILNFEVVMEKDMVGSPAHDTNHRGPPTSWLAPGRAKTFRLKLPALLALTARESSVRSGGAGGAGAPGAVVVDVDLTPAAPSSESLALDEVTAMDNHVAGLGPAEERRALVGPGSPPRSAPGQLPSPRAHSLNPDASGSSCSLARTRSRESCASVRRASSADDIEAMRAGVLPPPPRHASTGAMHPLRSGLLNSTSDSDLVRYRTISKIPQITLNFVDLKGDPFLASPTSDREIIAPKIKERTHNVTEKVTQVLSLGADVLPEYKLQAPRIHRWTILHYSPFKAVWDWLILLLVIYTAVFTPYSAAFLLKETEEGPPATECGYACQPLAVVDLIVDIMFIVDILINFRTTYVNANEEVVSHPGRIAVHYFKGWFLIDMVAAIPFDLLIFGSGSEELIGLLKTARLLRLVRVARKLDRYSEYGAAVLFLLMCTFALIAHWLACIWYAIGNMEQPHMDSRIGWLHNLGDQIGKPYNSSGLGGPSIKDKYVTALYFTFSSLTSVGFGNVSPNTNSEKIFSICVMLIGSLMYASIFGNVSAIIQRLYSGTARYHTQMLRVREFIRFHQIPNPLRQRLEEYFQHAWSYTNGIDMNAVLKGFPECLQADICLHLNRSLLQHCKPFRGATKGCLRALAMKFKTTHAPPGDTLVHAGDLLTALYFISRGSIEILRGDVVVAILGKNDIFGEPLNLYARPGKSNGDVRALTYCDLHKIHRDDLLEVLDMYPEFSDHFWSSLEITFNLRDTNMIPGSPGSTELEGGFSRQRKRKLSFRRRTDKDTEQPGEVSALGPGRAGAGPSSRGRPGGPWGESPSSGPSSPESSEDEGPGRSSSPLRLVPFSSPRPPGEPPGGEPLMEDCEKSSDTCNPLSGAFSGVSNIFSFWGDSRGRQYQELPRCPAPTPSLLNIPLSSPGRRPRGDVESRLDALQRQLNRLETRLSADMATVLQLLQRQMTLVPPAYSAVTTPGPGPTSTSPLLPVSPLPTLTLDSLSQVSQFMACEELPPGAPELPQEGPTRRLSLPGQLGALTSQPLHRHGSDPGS

On to `C[C@H]1CC[C@@H]2N(C1)C[C@H]1[C@@H]3C[C@H]4[C@@H](C[C@H](O)[C@H]5C[C@@H](O)CC[C@@]54C)[C@@H]3CC[C@@H]1[C@]2(C)O` [peimine], for which the IC50 in series [1] came to 26.1 ± 3.5 µM.

`C[C@H]1CC[C@@H]2N(C1)C[C@H]1[C@@H]3C[C@H]4[C@@H](CC(=O)[C@H]5C[C@@H](O)CC[C@@]54C)[C@@H]3CC[C@@H]1[C@]2(C)O` [peiminine] showed an IC50 in series [1] of 36.8 ± 2.5 µM. The compound further returned an inhibition at 100 µM in series [2] of 12.3 ± 1.4%.

For `C[C@H]1CC[C@@H]2N(C1)C[C@H]1[C@@H]3C[C@H]4[C@@H](CC(=O)[C@H]5C[C@@H](O)CC[C@@]54C)[C@@H]3CC[C@H]1[C@]2(C)O` [sipeimine], the IC50 in series [3] was about 47.6 µM.
